Measurements: paper doi:10.1101/2021.04.08.439011v1 (biorxiv, 2021)

Legend:
Conditions in all cases: 1 µM; binder
MAP4K4 = MAP4K4 (Homo sapiens, UniProt O95819)
DAPK2 = DAPK2 (Homo sapiens, UniProt Q9UIK4)
NDR2 = NDR2 (Homo sapiens, UniProt Q9Y2H1)
RET = RET (Homo sapiens, UniProt P07949)
EPHA3 = EPHA3 (Homo sapiens, UniProt P29320)
EPHB6 = EPHB6 (Homo sapiens, UniProt O15197)
SIK2 = SIK2 (Homo sapiens, UniProt Q9H0K1)
IGF1R = IGF1R (Homo sapiens, UniProt P08069)
CSNK1A1L = CSNK1A1L (Homo sapiens, UniProt Q8N752)
MAP4K2 = MAP4K2 (Homo sapiens, UniProt Q12851)
TAK1 = TAK1 (Homo sapiens, UniProt O43318)
DSTYK = DSTYK (Homo sapiens, UniProt Q6XUX3)
SLK = SLK (Homo sapiens, UniProt Q9H2G2)
DDR2 = DDR2 (Homo sapiens, UniProt Q16832)
WNK4 = WNK4 (Homo sapiens, UniProt Q96J92)
ALK(C1156Y) = ALK(C1156Y) (Homo sapiens, UniProt Q9UM73, C1156Y)
CDK4-cyclinD3 = CDK4-cyclinD3 (Homo sapiens, UniProt P11802)
CAMK2D = CAMK2D (Homo sapiens, UniProt Q13557)
ANKK1 = ANKK1 (Homo sapiens, UniProt Q8NFD2)
TNNI3K = TNNI3K (Homo sapiens, UniProt Q59H18)
MLK1 = MLK1 (Homo sapiens, UniProt P80192)
AKT2 = AKT2 (Homo sapiens, UniProt P31751)
ACVR2A = ACVR2A (Homo sapiens, UniProt P27037)
PIP4K2B = PIP4K2B (Homo sapiens, UniProt P78356)
MAPKAPK5 = MAPKAPK5 (Homo sapiens, UniProt Q8IW41)
p38-beta = p38-beta (Homo sapiens, UniProt Q15759)
PLK3 = PLK3 (Homo sapiens, UniProt Q9H4B4)
PIK3CA(C420R) = PIK3CA(C420R) (Homo sapiens, UniProt P42336, C420R)
FLT3(R834Q) = FLT3(R834Q) (Homo sapiens, UniProt P36888, R834Q)
CSNK1A1 = CSNK1A1 (Homo sapiens, UniProt P48729)

Sequence of WNK4 (Q96J92 whole entry): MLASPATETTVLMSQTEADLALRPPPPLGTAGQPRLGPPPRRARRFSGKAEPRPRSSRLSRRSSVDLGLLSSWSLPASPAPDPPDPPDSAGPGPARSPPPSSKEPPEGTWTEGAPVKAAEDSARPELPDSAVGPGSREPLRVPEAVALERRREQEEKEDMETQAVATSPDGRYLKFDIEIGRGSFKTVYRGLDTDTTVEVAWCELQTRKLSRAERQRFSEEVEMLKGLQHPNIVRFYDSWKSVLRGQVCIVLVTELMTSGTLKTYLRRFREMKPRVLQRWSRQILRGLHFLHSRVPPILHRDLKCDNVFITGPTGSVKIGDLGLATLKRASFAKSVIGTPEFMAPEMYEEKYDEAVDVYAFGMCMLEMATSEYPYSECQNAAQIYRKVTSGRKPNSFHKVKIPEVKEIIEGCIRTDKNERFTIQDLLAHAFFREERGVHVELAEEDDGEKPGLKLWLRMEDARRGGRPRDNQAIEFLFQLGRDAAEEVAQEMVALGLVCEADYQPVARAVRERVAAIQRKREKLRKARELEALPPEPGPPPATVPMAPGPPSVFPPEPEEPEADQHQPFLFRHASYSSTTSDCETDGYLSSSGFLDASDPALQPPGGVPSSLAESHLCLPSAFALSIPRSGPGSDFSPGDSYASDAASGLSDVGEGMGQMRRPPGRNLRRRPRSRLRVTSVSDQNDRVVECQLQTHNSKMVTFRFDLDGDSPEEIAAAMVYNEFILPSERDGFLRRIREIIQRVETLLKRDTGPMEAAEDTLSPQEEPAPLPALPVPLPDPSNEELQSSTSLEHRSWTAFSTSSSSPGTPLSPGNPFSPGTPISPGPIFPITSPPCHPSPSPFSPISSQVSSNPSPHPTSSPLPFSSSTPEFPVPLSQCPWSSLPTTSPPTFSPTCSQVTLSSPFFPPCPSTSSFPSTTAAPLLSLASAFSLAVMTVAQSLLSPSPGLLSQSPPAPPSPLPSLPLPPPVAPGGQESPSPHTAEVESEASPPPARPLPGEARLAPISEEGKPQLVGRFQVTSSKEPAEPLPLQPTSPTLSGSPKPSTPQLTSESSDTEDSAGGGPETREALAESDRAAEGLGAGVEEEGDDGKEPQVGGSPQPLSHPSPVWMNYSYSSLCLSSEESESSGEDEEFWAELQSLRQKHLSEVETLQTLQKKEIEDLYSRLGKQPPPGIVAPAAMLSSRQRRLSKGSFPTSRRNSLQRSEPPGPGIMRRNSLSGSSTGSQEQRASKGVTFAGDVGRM
Sequence of TNNI3K (Q59H18 whole entry): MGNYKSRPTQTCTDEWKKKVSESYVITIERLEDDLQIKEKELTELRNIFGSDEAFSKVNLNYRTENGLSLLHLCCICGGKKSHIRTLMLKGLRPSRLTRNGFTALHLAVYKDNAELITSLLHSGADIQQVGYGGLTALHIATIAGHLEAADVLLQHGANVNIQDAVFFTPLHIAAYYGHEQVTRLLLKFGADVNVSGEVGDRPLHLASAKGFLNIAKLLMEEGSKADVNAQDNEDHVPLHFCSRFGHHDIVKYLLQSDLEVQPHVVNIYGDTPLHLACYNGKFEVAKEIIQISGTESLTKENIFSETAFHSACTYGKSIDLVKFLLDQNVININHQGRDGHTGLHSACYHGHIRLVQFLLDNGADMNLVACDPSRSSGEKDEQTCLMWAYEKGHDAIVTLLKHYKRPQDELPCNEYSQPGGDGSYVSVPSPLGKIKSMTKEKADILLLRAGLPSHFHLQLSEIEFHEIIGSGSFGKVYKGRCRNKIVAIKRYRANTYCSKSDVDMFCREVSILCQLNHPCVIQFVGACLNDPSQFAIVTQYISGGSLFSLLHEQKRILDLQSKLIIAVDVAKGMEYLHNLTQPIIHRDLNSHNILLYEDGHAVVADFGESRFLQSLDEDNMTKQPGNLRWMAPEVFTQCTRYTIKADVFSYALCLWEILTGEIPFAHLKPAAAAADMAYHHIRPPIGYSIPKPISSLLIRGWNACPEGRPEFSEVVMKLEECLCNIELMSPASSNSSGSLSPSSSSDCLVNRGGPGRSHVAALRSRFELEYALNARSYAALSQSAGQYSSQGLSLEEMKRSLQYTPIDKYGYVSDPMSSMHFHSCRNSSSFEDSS
Sequence of EPHA3 (P29320 whole entry): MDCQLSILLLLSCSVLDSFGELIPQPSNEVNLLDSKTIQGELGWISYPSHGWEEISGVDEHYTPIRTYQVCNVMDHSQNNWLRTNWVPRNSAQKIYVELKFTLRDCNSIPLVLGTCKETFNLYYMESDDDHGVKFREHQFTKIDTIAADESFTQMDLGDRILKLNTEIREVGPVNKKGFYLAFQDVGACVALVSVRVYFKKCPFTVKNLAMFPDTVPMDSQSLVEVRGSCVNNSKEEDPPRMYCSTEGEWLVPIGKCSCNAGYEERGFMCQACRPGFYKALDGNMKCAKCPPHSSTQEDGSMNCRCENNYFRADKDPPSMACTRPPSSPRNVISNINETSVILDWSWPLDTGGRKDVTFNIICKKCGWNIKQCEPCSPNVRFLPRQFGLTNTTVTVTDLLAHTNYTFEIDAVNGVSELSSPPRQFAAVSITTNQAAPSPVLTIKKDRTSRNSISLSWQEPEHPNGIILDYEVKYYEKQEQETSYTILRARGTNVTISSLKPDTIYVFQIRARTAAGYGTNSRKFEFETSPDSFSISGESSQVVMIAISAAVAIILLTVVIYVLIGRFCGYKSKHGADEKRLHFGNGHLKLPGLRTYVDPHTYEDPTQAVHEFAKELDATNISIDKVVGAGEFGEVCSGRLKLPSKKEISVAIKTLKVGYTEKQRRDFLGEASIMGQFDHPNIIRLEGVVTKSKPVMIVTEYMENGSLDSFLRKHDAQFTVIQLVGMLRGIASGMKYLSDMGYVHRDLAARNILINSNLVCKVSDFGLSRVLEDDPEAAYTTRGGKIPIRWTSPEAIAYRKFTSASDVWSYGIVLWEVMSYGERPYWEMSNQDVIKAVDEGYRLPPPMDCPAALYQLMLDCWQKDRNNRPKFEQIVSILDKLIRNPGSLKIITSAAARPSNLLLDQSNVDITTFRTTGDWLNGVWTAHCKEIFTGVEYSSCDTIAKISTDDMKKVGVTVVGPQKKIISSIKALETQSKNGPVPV
Sequence of MAPKAPK5 (Q8IW41 whole entry): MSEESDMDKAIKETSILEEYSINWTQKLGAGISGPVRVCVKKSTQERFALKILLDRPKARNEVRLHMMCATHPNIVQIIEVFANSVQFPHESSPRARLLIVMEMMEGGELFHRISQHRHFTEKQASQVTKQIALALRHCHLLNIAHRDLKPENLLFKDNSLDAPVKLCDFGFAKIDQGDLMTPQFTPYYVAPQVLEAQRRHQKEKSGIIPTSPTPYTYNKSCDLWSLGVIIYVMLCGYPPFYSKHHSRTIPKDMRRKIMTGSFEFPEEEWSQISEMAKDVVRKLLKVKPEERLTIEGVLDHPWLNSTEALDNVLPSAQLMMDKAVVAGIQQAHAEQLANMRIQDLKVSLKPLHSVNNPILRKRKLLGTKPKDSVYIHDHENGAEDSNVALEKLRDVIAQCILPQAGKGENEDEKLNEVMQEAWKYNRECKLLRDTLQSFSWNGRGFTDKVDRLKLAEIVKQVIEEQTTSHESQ
Sequence of SLK (Q9H2G2 whole entry): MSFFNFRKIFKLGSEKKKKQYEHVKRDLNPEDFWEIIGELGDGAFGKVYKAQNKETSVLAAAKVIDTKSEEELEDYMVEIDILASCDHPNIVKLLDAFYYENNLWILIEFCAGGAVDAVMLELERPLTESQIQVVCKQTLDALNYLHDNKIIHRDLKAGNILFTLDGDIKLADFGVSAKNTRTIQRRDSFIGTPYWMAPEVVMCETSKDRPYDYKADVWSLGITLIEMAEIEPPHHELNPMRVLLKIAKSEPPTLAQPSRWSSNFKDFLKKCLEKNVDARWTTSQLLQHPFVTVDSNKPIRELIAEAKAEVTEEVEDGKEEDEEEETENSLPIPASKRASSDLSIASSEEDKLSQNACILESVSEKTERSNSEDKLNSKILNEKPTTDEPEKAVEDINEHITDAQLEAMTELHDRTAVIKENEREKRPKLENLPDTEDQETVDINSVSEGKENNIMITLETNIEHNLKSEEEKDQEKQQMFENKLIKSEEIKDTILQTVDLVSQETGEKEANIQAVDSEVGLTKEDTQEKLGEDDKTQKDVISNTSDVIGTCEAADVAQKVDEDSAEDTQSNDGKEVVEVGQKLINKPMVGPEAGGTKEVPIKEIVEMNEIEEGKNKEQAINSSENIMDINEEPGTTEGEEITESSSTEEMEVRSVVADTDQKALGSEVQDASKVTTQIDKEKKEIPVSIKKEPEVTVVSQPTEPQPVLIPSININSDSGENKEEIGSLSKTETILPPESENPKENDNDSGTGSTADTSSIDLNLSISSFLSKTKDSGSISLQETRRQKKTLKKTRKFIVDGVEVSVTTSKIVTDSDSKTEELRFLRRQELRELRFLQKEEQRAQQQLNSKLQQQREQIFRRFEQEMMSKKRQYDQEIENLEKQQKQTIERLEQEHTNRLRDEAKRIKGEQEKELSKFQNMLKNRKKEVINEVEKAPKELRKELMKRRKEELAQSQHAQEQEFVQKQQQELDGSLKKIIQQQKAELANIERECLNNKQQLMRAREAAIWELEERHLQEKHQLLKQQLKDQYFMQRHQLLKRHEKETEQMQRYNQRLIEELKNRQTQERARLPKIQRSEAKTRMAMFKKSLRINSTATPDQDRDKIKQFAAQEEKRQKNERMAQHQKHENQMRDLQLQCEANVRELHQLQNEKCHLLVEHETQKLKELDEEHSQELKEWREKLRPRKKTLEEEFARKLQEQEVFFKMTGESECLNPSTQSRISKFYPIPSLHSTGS

## CNc1ncc2cc(-c3ccc(-c4cccc(C)n4)cc3Cl)c(=O)n(C[C@H]3OC[C@H](N)CO3)c2n1 [compound 6, G-5555]
MAP4K4
  Percent Control: 100%
DAPK2
  Percent Control: 100%
NDR2
  Percent Control: 100%
RET
  Percent Control: 94%
EPHA3
  Percent Control: 88%
EPHB6
  Percent Control: 9%
SIK2
  Percent Control: 0.8%
IGF1R
  Percent Control: 100%
CSNK1A1L
  Percent Control: 100%
MAP4K2
  Percent Control: 32%
TAK1
  Percent Control: 92%
DSTYK
  Percent Control: 91%
SLK
  Percent Control: 33%
DDR2
  Percent Control: 100%
WNK4
  Percent Control: 18%
ALK(C1156Y)
  Percent Control: 100%
CDK4-cyclinD3
  Percent Control: 100%
CAMK2D
  Percent Control: 100%
ANKK1
  Percent Control: 87%
TNNI3K
  Percent Control: 98%
MLK1
  Percent Control: 96%
AKT2
  Percent Control: 100%
ACVR2A
  Percent Control: 100%
PIP4K2B
  Percent Control: 87%
MAPKAPK5
  Percent Control: 100%
p38-beta
  Percent Control: 100%
PLK3
  Percent Control: 93%
PIK3CA(C420R)
  Percent Control: 100%
FLT3(R834Q)
  Percent Control: 100%
CSNK1A1
  Percent Control: 89%
